From patent US20090269416A1, “Compositions and Methods For Preventing or Treating Chronic Renal Failure in Felines With Hyperthyroidism” (HILL'S PET NUTRITION , INC., priority 2006, published 2009)

Tested on: cats diagnosed with hyperthyroidism
Assay: Six-week feeding/treatment study in hyperthyroid cats (Example 1): thyroid hormone profiles and serum chemistries
Format: in vivo
Settings: six weeks
Experimental: Food B1 and food B2 were mixed in a 1:1 ratio, thus resulting in food B. A group of five cats diagnosed with hyperthyroidism was fed food B for six weeks. Another live cats diagnosed with hyperthyroidism were given 2.5 mg methimazole orally once a day for six weeks while they were fed food B. Eight eats diagnosed with hyperthyroidism were given 2.5 mg methimazole orally once a day for six weeks while they were fed a commercially available cat food. The thyroid hormone profiles and serum chemistries of all cats were measured at zero, two, four, and six weeks.

[1] = hyperthyroid cats, methimazole 2.5 mg orally once a day, food B fed

## Cn1cc[nH]c1=S [Methimazole, methimazole]
[1]
  Change in Serum Creatinine Levels: +0.46 mg/dL
  Change in Serum Total T4 Levels: -20.3 nmol/L
Normal range 0.8-1.8 mg/dL
  serum creatinine concentration relative to the normal creatinine concentration range: a bit higher than die 0.8-1.8 mg/dL normal creatinine concentration range
Normal range printed as 10-55 nmol/dL
  serum total T4 concentration relative to the normal total T4 concentration range: did not reach the normal total T4 concentration range
